Experimental data reported in patent US20140302027A1, “METHODS OF TREATING PERIODONTAL INFLAMMATION AND PERIODONTAL BONE LOSS” (United States of America as Represented by the Secretary, …, priority 2011, published 2014).

Legend:
[1] = test system: ligature-induced periodontal bone loss; experiment: Ligature-induced periodontitis model, periodontal bone loss; type: in vivo, mice; conditions: for inhibition of induction of bone loss relative to no-treatment: 1 μg microinjected in gingiva daily (FIG. 26a)
Method: FIG. 26. Inhibition of bone loss by Del-1 and other treatments that block LFA-1 or IL-17. Ligature-induced periodontal bone loss was assessed in mice treated as follows: (a) 18-month-old (left) and 10-week-old mice (right) were microinjected in the gingiva with Del-1-Fc or Fc control (1 μg) or with anti-IL-17A mAb or isotype control (1 or 10 μg). (b) WT and Itgal^−/− mice received Del-1-Fc or Fc control as above. (c) LFA878 was locally administered at an equal molar concentration with Del-1-Fc (corresponding to 8.4 ng and 1 μg, respectively) or at the indicated higher doses. (d) Anti-LFA-1 or IgG2a control were microinjected at either 1 μg, as was Del-1-Fc, or at 10 μg. (e) Del-1-Fc, anti-LFA-1, anti-ICAM-1, ICAM-1-Fc and their controls were i.v. administered at 50 μg. Data are means±SD (n=5-6 mice per group) from one of two (a,c,e) or three (b,d) independent and representative experiments. Data represent % inhibition of bone loss, which was calculated using the formula: ([Bone loss in the absence of inhibitor−Bone loss in the presence of inhibitor]/Bone loss in the absence of inhibitor)×100. *P<0.05; **P<0.01. NS, not significant.
The ligature-induced periodontitis model was used to determine the efficacy of potential therapeutic interventions (see below). Specifically, bone loss was induced by tying a 5-0 silk ligature around the maxillary left second molar, placing the ligature in the gingival sulcus; this treatment induces bone loss in conventional (but not germ-free) mice due to massive bacterial accumulation in the ligated teeth (Graves (2008)). The contralateral molar tooth in each mouse was left unligated (baseline control). Bone loss was examined 5 days after placement of the ligatures, which remained in place in all mice during the experimental period. Using the VIA-170K system, bone measurements were performed on the ligated second molar (3 sites corresponding to mesial cusp, palatal groove, and distal cusp) and the affected adjacent regions (sites corresponding to distal cusp and distal groove of the first molar, and palatal cusp of the third molar). To calculate bone loss, the 6-site total CEJ-ABC distance for the ligated side of each mouse was subtracted from the 6-site total CEJ-ABC distance of the contralateral unligated side of the same mouse.
To determine its protective efficacy in ligature-induced periodontitis, Del-1 was used in the form of a fusion protein with the Fc region of human IgG1 (Del-1-Fc) (GenScript). Del-1-Fc (1 μg) was microinjected into the palatal gingiva of the ligated second maxillary molar, one day before placement of the ligature and every day thereafter until the day before sacrifice on day 5. In other experiments, Del-1-Fc was administered systemically by i.v. injection (50 μg), following the same timing schedule as above. The same protocols were used to determine the effect of local (or systemic) administration of mAbs to LFA-1 (clone M17/4, rat IgG2a; BioLegend), ICAM-1 (clone YN1, IgG2b; Biolegend), IL-17A (clone M210, rat IgG2a; Amgen), or IL-17F (clone 316016, rat IgG2a; R&D Systems). Recombinant mouse ICAM-1 fused to the Fc region of human IgG1 (ICAM-1-Fc) as well as an LFA-1 antagonist (LFA878; kindly provided by Novartis) (Weitz-Schmidt (2004)) were also used in bone loss inhibition experiments. Purified azide-free rat IgG2a or IgG2b (BioLegend) and recombinant human IgG1 Fc (R&D Systems) were used as controls for the mAbs and Del-1-Fc, respectively.

[2] = test system: Del-1 expression in human endothelial cells; experiment: Del-1 mRNA expression in HUVEC stimulated with human IL-17A; type: cell-based
Text: FIG. 21. IL-17 downregulates Del-1 expression. (a) Gingival Del-1 mRNA expression in wild-type (WT) and IL17ra^−/− mice determined by qPCR. (b) Sagittal sections of interdental gingiva of WT and Il17ra^−/− mice were stained for Del-1; shown are representative fluorescent confocal images (upper row) and their overlays with corresponding DIC images (lower row). Bar, 50 μm; T, tooth; G, gingiva; S, sulcus. (c) The fluorescence intensities of these and additional representative images from independent mice (5 per group) were quantified using ImageJ analysis. (d) Anti-IL-17A mAb and IgG2a control were microinjected into the gingiva and Del-1 mRNA expression was determined by qPCR. (e) Gingival IL-17A mRNA expression was determined in young (8-10 weeks) and old (18 months) mice using qPCR. (f) Linear-regression analysis of Del-1 versus IL-17A expression in old mice. (g) Determination of Del-1 mRNA expression and MPO amounts in the gingiva of indicated BM chimeric mice (donor BM→lethally irradiated recipient). (h) HUVEC were stimulated with or without human IL-17A and Del-1 mRNA expression was quantified by qPCR (pooled data from four independent experiments). […]
Total RNA was extracted from excised gingival tissue or cultured cells using the PerfectPure RNA cell kit (5 Prime, Fisher) and quantified by spectrometry at 260 and 280 nm. […]

[3] = test system: P. gingivalis (Pg)-induced bone loss; experiment: P. gingivalis-induced periodontal bone loss mouse model; type: in vivo, mice; conditions: local gingival injections (FIG. 2C)
human neutrophils = experiment: Transmigration assay of human neutrophils through HUVEC monolayer; type: cell-based; conditions: 5 μg/ml, towards IL-8 (20 ng/ml)
Method: FIG. 14. LFA-1 dependence of Del-1 deficiency-associated inflammation and bone loss. (a) Twenty-week-old C57BL/6 wild-type (WT) mice or mice deficient in the indicated molecules were assessed for bone loss relative to 5-week-old WT mice (zero baseline); the dotted line indicates the bone heights of 20-week-old WT mice for ease of comparison. (b) Sagittal sections of interdental gingiva from the same mice were stained for Ly6G; shown are representative overlays of DIC and fluorescent confocal images. (c) The fluorescence intensities of these and additional representative images from independent mice (5 per group) were quantified using ImageJ analysis. (d) Dissected gingiva from the indicated mice were processed for ELISA determination of MPO protein (left) or qPCR determination of PGRP1 transcript abundance (right). (e) Transmigration of human neutrophils through an endothelial cell monolayer (HUVEC) towards IL-8 (20 ng/ml) in the bottom well was determined with or without soluble human Del-1 (5 μg/ml), BSA (5 μg/ml), anti-LFA-1 mAb (10 μg/ml) or IgG1 control (10 μg/ml). […]
Transmigration assays were performed as previously described (Ley (2007)), using 6.5-mm Transwells with an 8-μm pore size (Corning). […] After 60 min incubation at 37° C., the number of transmigrated cells in the lower compartment was measured (Ley (2007)). […]

Del-1-Fc: Del-1 as a fusion protein with the Fc region of human IgG1 (GenScript); SEQ ID NO: 5
inhibition of induction of bone loss relative to no-treatment ([1]; 10-week-old mice): ≈ 80% | inhibition of bone loss ([1]; 18-month old mice, microinjected in palatal gingiva daily from day -1 to day 4 (FIG. 7)): significant inhibition of bone loss | inhibition of induction of bone loss relative to no-treatment ([1]; 18-month-old mice): inhibited | effect against bone loss ([1]; Itgal−/− mice (LFA-1 deficient), local (FIG. 26b)): minor, but not statistically significant, effect | potency in inhibiting periodontal bone loss versus other LFA-1-ICAM-1 inhibitors ([1]; given locally or systemically): more potent

CC[C@H](C)C(=O)O[C@H]1C[C@@H](C)C=C2C=C[C@H](C)[C@H](CC[C@@H]3C[C@H](CC(=O)NC)N(Cc4ccc(O)c(OC)c4)C(=O)O3)[C@H]21 [LFA878, reference compound]
protection against bone loss compared with Del-1-Fc ([1]; local, equal molar amounts (8.4 ng vs 1 μg Del-1-Fc) (FIG. 26c)): less protective than Del-1-Fc | protection against bone loss compared with Del-1-Fc ([1]; locally administered at 1 μg (FIG. 26c)): almost (but not quite) comparable to Del-1-Fc

human IL-17A: human IL-17A cytokine used to stimulate HUVEC
Del-1 expression in human endothelial cells (HUVEC) [2]: inhibited

O=C(NCc1cccc(O)c1)c1cc(Cl)c(C(=O)N[C@@H](CNC(=O)c2cc(O)cc(O)c2)C(=O)O)c(Cl)c1 [XVA143]
P. gingivalis (Pg)-induced bone loss [3]: inhibited

B1: human Del-1: soluble human Del-1 from R&D Systems; human Del-1 amino acid sequence SEQ ID NO: 1 (protein, listed as Homo sapiens)
chain: MKRSVAVWLLVGLSLSVPQFGKGDICDPNPCENGGICLPGLADGSFSCECPDGFTDPNCSSVVEVASDEEEPTSAGPCTPNPCHNGGTCEISEAYRGDTFIGYVCKCPRGFNGIHCQHNINECEVEPCKNGGICTDLVANYSCECPGEFMGRNCQYKCSGPLGIEGGIISNQQITASSTHRALFGLQKWYPYYARLNKKGLINAWTAAENDRWPWIQINLQRKMRVTGVITQGAKRIGSPEYIKSYKIAYSNDGKTWAMYKVKGTNEDMVFRGNIDNNTPYANSFTPPIKAQYVRLYPQVCRRHCTLRMELLGCELSGCSEPLGMKSGHIQDYQITASSIFRTLNMDMFTWEPRKARLDKQGKVNAWTSGHNDQSQWLQVDLLVPTKVTGIITQGAKDFGHVQFVGSYKLAYSNDGEHWTVYQDEKQRKDKVFQGNFDNDTHRKNVIDPPIYARHIRILPWSWYGRITLRSELLGCTEEE
LFA-1-dependent transendothelial migration of human neutrophils (human neutrophils): inhibited
